Activity calls are given as the source filed them. The calls are words filed in the database; no cut-off is given here.
Tests used:
Assay type in all cases: functional
Staphylococcus aureus [1] = test: Antibacterial activity against Staphylococcus aureus assessed at 50 ug after 24 hrs by agar well diffusion method; conditions: read-out: DIZ
Staphylococcus aureus [2] = test: Antibacterial activity against Staphylococcus aureus at 100 ug after 24 hrs by agar well diffusion method; conditions: read-out: DIZ
Bacillus subtilis [3] = test: Antibacterial activity against Bacillus subtilis at 50 ug after 24 hrs by agar well diffusion method; conditions: read-out: DIZ
Bacillus subtilis [4] = test: Antibacterial activity against Bacillus subtilis at 100 ug after 24 hrs by agar well diffusion method; conditions: read-out: DIZ
Pseudomonas aeruginosa [5] = test: Antibacterial activity against Pseudomonas aeruginosa at 50 ug after 24 hrs by agar well diffusion method; conditions: for zone of inhibition at 50 µg/disc: read-out: DIZ
Pseudomonas aeruginosa [6] = test: Antibacterial activity against Pseudomonas aeruginosa at 100 ug after 24 hrs by agar well diffusion method; conditions: for zone of inhibition at 100 µg/disc: read-out: DIZ
Klebsiella pneumoniae [7] = test: Antibacterial activity against Klebsiella pneumoniae at 50 ug after 24 hrs by agar well diffusion method; conditions: for zone of inhibition at 50 µg/disc: read-out: DIZ
Klebsiella pneumoniae [8] = test: Antibacterial activity against Klebsiella pneumoniae at 100 ug after 24 hrs by agar well diffusion method; conditions: for zone of inhibition at 100 µg/disc: read-out: DIZ
Staphylococcus aureus [9] = test: Antibacterial activity against Staphylococcus aureus at 35 degC after 24 hrs by broth dilution method
Bacillus subtilis [10] = test: Bactericidal activity against Bacillus subtilis after 24 hrs by broth dilution method
Pseudomonas aeruginosa [11] = test: Bactericidal activity against Pseudomonas aeruginosa after 24 hrs by broth dilution method
Klebsiella pneumoniae [12] = test: Bactericidal activity against Klebsiella pneumoniae after 24 hrs by broth dilution method
Aspergillus niger [13] = test: Antifungal activity against Aspergillus niger at 50 ug after 48 hrs by agar well diffusion method; conditions: for zone of inhibition at 50 µg/disc: read-out: DIZ
Aspergillus niger [14] = test: Antifungal activity against Aspergillus niger at 100 ug after 48 hrs by agar well diffusion method; conditions: for zone of inhibition at 100 µg/disc: read-out: DIZ
Penicillium chrysogenum [15] = test: Antifungal activity against Penicillium chrysogenum at 50 ug after 48 hrs by agar well diffusion method; conditions: for zone of inhibition at 50 µg/disc: read-out: DIZ
Penicillium chrysogenum [16] = test: Antifungal activity against Penicillium chrysogenum at 100 ug after 48 hrs by agar well diffusion method; conditions: for zone of inhibition at 100 µg/disc: read-out: DIZ
Staphylococcus aureus [17] = test: Antibacterial activity against Staphylococcus aureus at 35 degC after 24 hrs by NCCLS M7-A3 method
Bacillus subtilis [18] = test: Bactericidal activity against Bacillus subtilis after 24 hrs by NCCLS M7-A3 method
Pseudomonas aeruginosa [19] = test: Bactericidal activity against Pseudomonas aeruginosa after 24 hrs by NCCLS M7-A3 method
Klebsiella pneumoniae [20] = test: Bactericidal activity against Klebsiella pneumoniae after 24 hrs by NCCLS M7-A3 method
Aspergillus niger [21] = test: Fungicidal activity against Aspergillus niger after 48 hrs by broth dilution method
Aspergillus niger [22] = test: Fungicidal activity against Aspergillus niger after 48 hrs by NCCLS M27-P broth dilution method
Penicillium chrysogenum [23] = test: Fungicidal activity against Penicillium chrysogenum after 48 hrs by broth dilution method
Penicillium chrysogenum [24] = test: Fungicidal activity against Penicillium chrysogenum after 48 hrs by NCCLS M27-P broth dilution method

| Structure (SMILES) | zone of inhibition at 50 µg/disc (Staphylococcus aureus [1]) [mm] | zone of inhibition at 100 µg/disc (Staphylococcus aureus [2]) [mm] | zone of inhibition at 50 µg/disc (Bacillus subtilis [3]) [mm] | zone of inhibition at 100 µg/disc (Bacillus subtilis [4]) [mm] | zone of inhibition at 50 µg/disc (Pseudomonas aeruginosa [5]) [mm] | zone of inhibition at 100 µg/disc (Pseudomonas aeruginosa [6]) [mm] | zone of inhibition at 50 µg/disc (Klebsiella pneumoniae [7]) [mm] | zone of inhibition at 100 µg/disc (Klebsiella pneumoniae [8]) [mm] | MIC (Staphylococcus aureus [9]) [µg] | MIC (Bacillus subtilis [10]) [µg] | MIC (Pseudomonas aeruginosa [11]) [µg] | MIC (Klebsiella pneumoniae [12]) [µg] | zone of inhibition at 50 µg/disc (Aspergillus niger [13]) [mm] | zone of inhibition at 100 µg/disc (Aspergillus niger [14]) [mm] | zone of inhibition at 50 µg/disc (Penicillium chrysogenum [15]) [mm] | zone of inhibition at 100 µg/disc (Penicillium chrysogenum [16]) [mm] | MIC (Aspergillus niger [21]) [µg] | MIC (Penicillium chrysogenum [23]) [µg] | other results |
| --- | --- | --- | --- | --- | --- | --- | --- | --- | --- | --- | --- | --- | --- | --- | --- | --- | --- | --- | --- |
| O=C(N[C@H](CO)[C@H](O)c1ccc([N+](=O)[O-])cc1)C(Cl)Cl [CHLORAMPHENICOL] | 33 | 35 | 34 | 38 | 27 | 30 | 40 | 42 | 6.25 | 6.25 | 6.25 | 12.5 | – | – | – | – | – | – | – |
| O=C(Nc1nc(-c2ccc(Cl)cc2)c[nH]1)c1c[nH]cc1-c1ccccc1 | 30 | 33 | 29 | 33 | 25 | 28 | 34 | 36 | 50 | 25 | 50 | 100 | 32 | 34 | 33 | 36 | 25 | 50 | MBC (Staphylococcus aureus [17]): 200 µg; MBC (Bacillus subtilis [18]): 100 µg; MBC (Pseudomonas aeruginosa [19]): >200 µg; MBC (Klebsiella pneumoniae [20]): >200 µg; MFC (Aspergillus niger [22]): 100 µg; MFC (Penicillium chrysogenum [24]): >200 µg |
| O=C(/C=C/c1ccccc1)Nc1nc(-c2ccc(Cl)cc2)c[nH]1 | 32 | 35 | 36 | 38 | 31 | 33 | 39 | 40 | 12.5 | 12.5 | 12.5 | 25 | 32 | 34 | 35 | 38 | 12.5 | 25 | MBC (Staphylococcus aureus [17]): 50 µg; MBC (Bacillus subtilis [18]): 25 µg; MBC (Pseudomonas aeruginosa [19]): 50 µg; MBC (Klebsiella pneumoniae [20]): 100 µg; MFC (Aspergillus niger [22]): 100 µg; MFC (Penicillium chrysogenum [24]): 50 µg |
| O=C(Nc1nc(-c2ccc(Cl)cc2)c[nH]1)c1n[nH]cc1-c1ccccc1 | 31 | 34 | 33 | 35 | 30 | 32 | 37 | 39 | 50 | 12.5 | 25 | 50 | 30 | 34 | 33 | 37 | 12.5 | 25 | MBC (Staphylococcus aureus [17]): 200 µg; MBC (Bacillus subtilis [18]): 50 µg; MBC (Pseudomonas aeruginosa [19]): 100 µg; MBC (Klebsiella pneumoniae [20]): 200 µg; MFC (Aspergillus niger [22]): 50 µg; MFC (Penicillium chrysogenum [24]): 100 µg |
| O=C(/C=C/c1ccccc1)Nc1nc(-c2ccccc2)cs1 | 21 | 23 | 24 | 26 | 17 | 18 | 26 | 28 | – | – | – | – | 21 | 24 | 23 | 26 | – | – | – |
| O=C(/C=C/c1ccccc1)Nc1nc(-c2ccccc2)co1 | 12 | 15 | 15 | 16 | – | – | – | – | – | – | – | – | – | – | – | – | – | – | diameter of the inhibition zone (DIZ) (Pseudomonas aeruginosa [5]): inactive; diameter of the inhibition zone (DIZ) (Pseudomonas aeruginosa [6]): inactive; diameter of the inhibition zone (DIZ) (Klebsiella pneumoniae [7]): inactive; diameter of the inhibition zone (DIZ) (Klebsiella pneumoniae [8]): inactive; diameter of the inhibition zone (DIZ) (Aspergillus niger [13]): inactive; diameter of the inhibition zone (DIZ) (Aspergillus niger [14]): inactive; diameter of the inhibition zone (DIZ) (Penicillium chrysogenum [15]): inactive; diameter of the inhibition zone (DIZ) (Penicillium chrysogenum [16]): inactive |
| O=C(Nc1nc(-c2ccccc2)co1)c1c[nH]cc1-c1ccccc1 | 12 | 14 | 13 | 15 | – | – | – | – | – | – | – | – | – | – | – | – | – | – | diameter of the inhibition zone (DIZ) (Pseudomonas aeruginosa [5]): inactive; diameter of the inhibition zone (DIZ) (Pseudomonas aeruginosa [6]): inactive; diameter of the inhibition zone (DIZ) (Klebsiella pneumoniae [7]): inactive; diameter of the inhibition zone (DIZ) (Klebsiella pneumoniae [8]): inactive; diameter of the inhibition zone (DIZ) (Aspergillus niger [13]): inactive; diameter of the inhibition zone (DIZ) (Aspergillus niger [14]): inactive; diameter of the inhibition zone (DIZ) (Penicillium chrysogenum [15]): inactive; diameter of the inhibition zone (DIZ) (Penicillium chrysogenum [16]): inactive |
| O=C(Nc1nc(-c2ccc(Cl)cc2)co1)c1n[nH]cc1-c1ccccc1 | 20 | 23 | 21 | 22 | 19 | 21 | 23 | 24 | – | – | – | – | 24 | 27 | 26 | 29 | – | – | – |
| CC(=O)N1CCN(c2ccc(OCC3COC(Cn4ccnc4)(c4ccc(Cl)cc4Cl)O3)cc2)CC1 (configuration not stated) [KETOCONAZOLE] | – | – | – | – | – | – | – | – | – | – | – | – | 33 | 36 | 36 | 38 | 6.25 | 12.5 | – |
| Cc1ccc(-c2csc(NC(=O)/C=C/c3ccccc3)n2)cc1 | 20 | 22 | 23 | 25 | 15 | 17 | 25 | 27 | – | – | – | – | 19 | 23 | 22 | 25 | – | – | – |
| Cc1ccc(-c2c[nH]c(NC(=O)c3n[nH]cc3-c3ccccc3)n2)cc1 | 8 | 9 | 9 | 12 | 9 | 10 | 11 | 13 | – | – | – | – | 8 | 9 | 8 | 11 | – | – | – |

Reference: ChEMBL document CHEMBL2146447, “Synthesis and antimicrobial activity of amido linked pyrrolyl and pyrazolyl-oxazoles, thiazoles and imidazoles” (2011)
